Results as given in patent US20240150293A1, “SPIROCYCLOHEXANE DERIVATIVES, PHARMACEUTICAL COMPOSITIONS CONTAINING THEM AND THEIR USES AS ANTI-APOPTOTIC INHIBITORS” (LES LABORATOIRES SERVIER, priority 2021, published 2024).
Where two headings read alike, the source gives them in different places.

What was measured:
Mcl-1 protein = Mcl-1 protein (UniProtKB Q07820) (Homo sapiens (Human), UniProt Q07820); assay: Inhibition of Mcl-1 by the fluorescence polarisation assay (Example A, Method A); type: binding; settings: fluorescence polarization assay
Method in brief: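 Protein (5 nM) and fluorescein-tagged peptide tracer (1 nM) incubated with 11-point compound series for 2 h at room temperature in HEPES/NaCl/Tween 20 buffer, pH 7.4, 5% DMSO. Displacement read as decrease in polarisation; IC50 fitted by 4-parameter logistic, converted to Ki (cKi or eKi).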

[1] = tested on: H929 multiple myeloma tumor line; assay: In vitro cytotoxicity, MTT assay (Example B, Method A); type: cell-based; settings: H929 cells, 48 hours exposure, read-out: C50
Protocol: The cytotoxicity studies were carried out on the H929 multiple myeloma tumor line.
The cells are distributed onto microplates and exposed to the test compounds for 48 hours. The cell viability is then quantified by a colorimetric assay, the Microculture Tetrazolium Assay (Carmichael et al, Cancer Res. 1987, 47, 939-942).
The results are expressed in C50 which means concentration corresponding to […] of effect/inhibition.

Sequence of Mcl-1 protein (Q07820 whole entry): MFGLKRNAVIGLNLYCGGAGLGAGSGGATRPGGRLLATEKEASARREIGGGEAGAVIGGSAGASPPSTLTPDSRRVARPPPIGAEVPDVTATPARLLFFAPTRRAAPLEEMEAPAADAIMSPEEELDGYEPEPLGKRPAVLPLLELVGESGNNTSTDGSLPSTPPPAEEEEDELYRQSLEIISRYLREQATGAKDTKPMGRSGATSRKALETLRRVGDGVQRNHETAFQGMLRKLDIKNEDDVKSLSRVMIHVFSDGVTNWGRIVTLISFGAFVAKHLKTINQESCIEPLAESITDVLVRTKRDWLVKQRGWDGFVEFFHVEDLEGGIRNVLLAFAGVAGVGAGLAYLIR

| Compound | Ki (Mcl-1 protein) [nM] | IC50 [1] [nM] | IC50 ([1]; Homo sapiens, NCI-H929, 48 h) [nM] |
| --- | --- | --- | --- |
| CC(C)C(COc1cccnc1)CC1Cc2ccccc2[C@]12CC[C@@](Nc1cccc(Cl)c1)(C(=O)O)CC2 (single isomer, unassigned) [Example 528, (1r,4r)-4-(3-chloroanilino)-2′-(3-methyl-2-{[(pyridin-3-yl)oxy]methyl}butyl)-2′,3′-dihydrospiro[cyclohexane-1,1′-indene]-4-carboxylic acid] | 3280 | 30000 | – |
| CC(C)COc1ccc2c(c1)[C@]1(CC[C@@](Nc3cccc(Cl)c3)(C(=O)O)CC1)C(c1cccc(Oc3ccccc3)c1)C2 (single isomer, unassigned) [Example 385, (1r,4r)-4-(3-chloroanilino)-6′-(2-methylpropoxy)-2′-(3-phenoxyphenyl)-2′,3′-dihydrospiro[cyclohexane-1,1′-indene]-4-carboxylic acid] | 810 | – | 18900 |
| COc1ccc2c(c1)[C@]1(CC2)CC[C@](Nc2cccc(Br)c2)(C(=O)O)CC1 [Example 61, (1r,4s)-4-(3-bromoanilino)-6′-methoxy-2′,3′-dihydrospiro[cyclohexane-1,1′-indene]-4-carboxylic acid] | 358 | – | 30000 |
| Cc1cc2c(OCCC[C@H]3Cc4ccccc4[C@]34CC[C@@](Nc3cccc(Cl)c3)(C(=O)O)CC4)cccc2[nH]1 [Example 482, (1r,2′S,4S)-4-(3-chloroanilino)-2′-{3-[(2-methyl-1H-indol-4-yl)oxy]propyl}-2′,3′-dihydrospiro[cyclohexane-1,1′-indene]-4-carboxylic acid] | 317 | – | 12400 |
| C[C@@H]1CCc2ncnc(OCCCC3Cc4ccccc4[C@]34CC[C@@](Nc3cccc(Cl)c3)(C(=O)O)CC4)c21 (stereo partly drawn) [Example 472, (1r,4R)-4-(3-chloroanilino)-2′-(3-{[(5R)-5-methyl-6,7-dihydro-5H-cyclopenta[d]pyrimidin-4-yl]oxy}propyl)-2′,3′-dihydrospiro[cyclohexane-1,1′-indene]-4-carboxylic acid] | 33 | – | 5040 |
| C[C@@H](COc1ccnc2c1CCCCC2O)C[C@H]1Cc2ccccc2[C@]12CC[C@@](Nc1cccc(Cl)c1)(C(=O)O)CC2 (stereo partly drawn) [Example 634, (1r,2′S,4S)-4-(3-chloroanilino)-2′-{(2R)-3-[(9-hydroxy-6,7,8,9-tetrahydro-5H-cyclohepta[b]pyridin-4-yl)oxy]-2-methylpropyl}-2′,3′-dihydrospiro[cyclohexane-1,1′-indene]-4-carboxylic acid] | 86.8 | – | 4230 |
| COc1ccc2c(c1)[C@]1(CC[C@@](Nc3cccc(Cl)c3)(C(=O)O)CC1)C(c1cccc(Oc3ccccc3)c1)C2 (single isomer, unassigned) [Example 378, (1r,4r)-4-(3-chloroanilino)-6′-methoxy-2′-(3-phenoxyphenyl)-2′,3′-dihydrospiro[cyclohexane-1,1′-indene]-4-carboxylic acid] | 63.2 | – | 9240 |
| Cc1cccc(C2Cc3ccccc3[C@]23CC[C@@](Nc2cccc(Cl)c2)(C(=O)O)CC3)c1 (single isomer, unassigned) [Example 345, (1r,4r)-4-(3-chloroanilino)-2′-(3-methylphenyl)-2′,3′-dihydrospiro[cyclohexane-1,1′-indene]-4-carboxylic acid] | 1240 | – | 30000 |
| CC1CCc2nccc(OC[C@H](C)C[C@H]3Cc4ccccc4[C@]34CC[C@@](Nc3cccc(Cl)c3)(C(=O)O)CC4)c2C1 (stereo partly drawn) [Example 651, (1r,2′S,4S)-4-(3-chloroanilino)-2′-{(2R)-2-methyl-3-[(6-methyl-5,6,7,8-tetrahydroquinolin-4-yl)oxy]propyl}-2′,3′-dihydrospiro[cyclohexane-1,1′-indene]-4-carboxylic acid] | 17.9 | – | 1260 |
| C[C@@H]1Cc2ccccc2[C@]12CC[C@@](Nc1cccc(Br)c1)(C(=O)O)CC2 [Example 144, (1r,2′R,4R)-4-(3-bromoanilino)-2′-methyl-2′,3′-dihydrospiro[cyclohexane-1,1′-indene]-4-carboxylic acid] | 182 | – | 30000 |
| Cc1csc2nccc(OC[C@H](C)C[C@H]3Cc4ccccc4[C@]34CC[C@@](Nc3cccc(Cl)c3)(C(=O)O)CC4)c12 [Example 605, (1r,2′S,4S)-4-(3-chloroanilino)-2′-{(2R)-2-methyl-3-[(3-methylthieno[2,3-b]pyridin-4-yl)oxy]propyl}-2′,3′-dihydrospiro[cyclohexane-1,1′-indene]-4-carboxylic acid] | 24.2 | – | 906 |
| C[C@@H](COc1ccnc2c1CCC[C@@H]2O)C[C@H]1Cc2ccccc2[C@]12CC[C@@](Nc1cccc(Cl)c1)(C(=O)O)CC2 [Example 669, (1r,2′S,4S)-4-(3-chloroanilino)-2′-[(2R)-3-{[(8S)-8-hydroxy-5,6,7,8-tetrahydroquinolin-4-yl]oxy}-2-methylpropyl]-2′,3′-dihydrospiro[cyclohexane-1,1′-indene]-4-carboxylic acid] | 32.3 | – | 1520 |
| CC(C)C(COc1ccccc1)CC1Cc2ccccc2[C@]12CC[C@@](Nc1cccc(Cl)c1)(C(=O)O)CC2 (single isomer, unassigned) [Example 529, (1r,4r)-4-(3-chloroanilino)-2′-[3-methyl-2-(phenoxymethyl)butyl]-2′,3′-dihydrospiro[cyclohexane-1,1′-indene]-4-carboxylic acid] | 4310 | 25300 | – |
| CNc1cc(OC[C@H](C)C[C@H]2Cc3ccccc3[C@]23CC[C@@](Nc2cccc(Cl)c2)(C(=O)O)CC3)ccn1 [Example 585, (1r,2′S,4S)-4-(3-chloroanilino)-2′-[(2R)-2-methyl-3-{[2-(methylamino)pyridin-4-yl]oxy}propyl]-2′,3′-dihydrospiro[cyclohexane-1,1′-indene]-4-carboxylic acid] | 36 | – | 2610 |
| O=C(O)[C@]1(Nc2cccc(Cl)c2)CC[C@]2(CC1)C(CCCCc1ccccc1)=Cc1ccccc12 [Example 393, (1r,4r)-4-(3-chloroanilino)-2′-(4-phenylbutyl)spiro[cyclohexane-1,1′-indene]-4-carboxylic acid] | 150 | – | 12000 |
| CC1CCc2nccc(OC[C@H](C)CC3Cc4ccccc4[C@]34CC[C@@](Nc3cccc(Cl)c3)(C(=O)O)CC4)c21 (mixture of isomers) [Example 602, (1r,4R)-4-(3-chloroanilino)-2′-{(2R)-2-methyl-3-[(5-methyl-6,7-dihydro-5H-cyclopenta[b]pyridin-4-yl)oxy]propyl}-2′,3′-dihydrospiro[cyclohexane-1,1′-indene]-4-carboxylic acid] | 3.37 | – | 518 |
| C[C@@H](COc1ccnc2c1CCC2)CC1Cc2ccccc2[C@]12CC[C@@](Nc1ccccc1)(C(=O)O)CC2 (stereo partly drawn) [Example 596, (1r,4R)-4-anilino-2′-{(2R)-3-[(6,7-dihydro-5H-cyclopenta[b]pyridin-4-yl)oxy]-2-methylpropyl}-2′,3′-dihydrospiro[cyclohexane-1,1′-indene]-4-carboxylic acid] | 31.2 | – | 1820 |
| O=C(O)[C@]1(Nc2cccc(Cl)c2)CC[C@@]2(CC1)c1ccccc1C[C@H]2C[C@H](COc1cccnc1)c1ccccc1 [Example 550, (1r,2′R,4R)-4-(3-chloroanilino)-2′-{(2S)-2-phenyl-3-[(pyridin-3-yl)oxy]propyl}-2′,3′-dihydrospiro[cyclohexane-1,1′-indene]-4-carboxylic acid] | 5280 | – | 30000 |
